# From patent US20240299562A1 (priority 2020, published 2024)
# pIC50: −log10 of the molar value. Like-named read-outs stand apart in the source and are kept apart here. Where a SMILES comes first, the peptide text is derived from it.
# Columns and labels:
# [1] = WST-1 cell viability, normal HME-1 cells; assay type: cell-based, human; conditions: human; HME-1 normal cells; 72 hrs, WST-1 (Table 2); read-out: Maximal efficacy, cytotoxicity (%) at 100 μM
# Description: (§1) All commercial cell lines were purchased at ATCC (LGC Standards SARL, France). Cells were seeded in 96-well plates according to their optimal seeding density, varying between 5.000 and 10.000 cells/well. After attachment overnight, 10-point serial titrations (1:5) were prepared in their equivalent complete media as recommended by ATCC, starting from the 10 mM stock solutions. For doxorubicin comprising prodrugs dilutions started from 100 μM, while for the parent compound doxorubicin dilutions started at 10 μM. […] Seventy-two hours later, compounds were removed together with the supernatants and cells were washed once with PBS to remove excess drugs.
# (§2) The WST-1 assay for cell proliferation and viability (Roche, Switzerland) was performed according to manufacturer's protocol. Absorbances were measured at 4 hrs using a Perkin Elmer Ensight multiplate reader, equipped with Kaleido 2.0 software (Perkin Elmer, USA). Cell viability was expressed as a percentage compared to non-treated cells. Absolute IC50 values were extrapolated from a non-linear fitting following the Sigmoidal-4PL regression method using Graphpad Prism 7.0. Likewise, maximal efficacy was determined as 100% minus the cell viability determined when cells are incubated in the presence of a compound. For instance, if 20% of the cells survive incubation in the presence of a compound, then the maximal efficacy of that compound is 100%-20%=80%.
# (§3) Selectivity indices (SI) were defined as the ratio of the concentration of drug required to kill 50% of the cells in normal (control, non-cancer) cells, divided by the concentration required to exert the same efficacy in tumor cells: SI=IC50 (control cell)/IC50 (cancer cell), or SI=^HME-1IC50/cancer IC50.
# HME-1 cells = experiment: WST-1 cell viability, normal HME-1 cells; assay type: cell-based, human; conditions: for pIC50: HME-1 normal cells, 72 hrs continuous drug exposure, WST-1 (Table 1), read-out: Absolute IC50
# Description: as §1, §2, §3
# [2] = system: U87 MG glioblastoma cells subcutaneously implanted in nude NMRI mice; experiment: In vivo activity of PhAc-ALLP-Dox on U87 MG glioblastoma xenograft; set-up: species or system mouse; conditions: 154 mg/kg iv, once per week
# Description: The in vivo efficacy of PhAc-ALLP-Dox was tested in a mouse GBM model. U87 MG glioblastoma cells were subcutaneously (SC) implanted in nude NMRI mice. In total, 32 adult (9-10 weeks old) nude female NMRI mice (Janvier, France) were subjected to SC tumor cell grafting in the right flank. In total, 5×10^6 U87 MG cells resuspended in PBS plus Matrigel (1:1) were injected in 200 uL final volume. As soon as the tumors were palpable and reached the volume of 200 mm3 the treatment was started. At day zero, mice were randomly divided into 4 groups, based on the tumor volume, in order to have the following experimental sub-cohorts: • control group receiving the vehicle (PBS pH7.2) with a dose of 5 ml/kg, intravenously (iv), once per week (QW); • PhAc-ALLP-Dox (30 mg/kg iv, QW); • PhAc-ALGP-Dox (154 mg/kg iv, QW); • Dox (5 mg/kg iv, QW).
# Treatments were performed once per week for a total of four tail vein administrations/injections (on days 1, 7, 14 and 21). One extra week of observation followed the active treatment phase. During the experiment, tumor volume was measured two times a week and was assessed three-dimensionally with a digital caliper (Mitutoyo, Illinois) using the following formula:
# V=4/3π×[(d/2)^2×(D/2)], where d is the minor tumor axis and D is the major tumor axis.
# NCI-H292 cells = experiment: WST-1 cell viability, NCI-H292 lung cancer cells; assay type: cell-based
# Description: as §1, §2, §3
# LS 174T cells = experiment: WST-1 cell viability, LS 174T colorectal cancer cells; assay type: cell-based
# Description: as §1, §2, §3
# DU145 cells = experiment: WST-1 cell viability, DU145 prostate cancer cells; assay type: cell-based
# Description: as §1, §2, §3
# NCI-1299 cells = experiment: WST-1 cell viability, NCI-H1299 lung cancer cells; assay type: cell-based
# Description: as §1, §2, §3
# A-172 cells = experiment: WST-1 cell viability, A-172 glioblastoma cells; assay type: cell-based
# Description: as §1, §2, §3
# A2780 Cp cells = experiment: WST-1 cell viability, A2780 CpR (cisplatin resistant) ovarian cancer cells; assay type: cell-based
# Description: as §1, §2, §3
# MDA-MB-468 cells = experiment: WST-1 cell viability, MDA-MB-468 triple negative breast cancer cells; assay type: cell-based
# Description: as §1, §2, §3
# U-87 MG cells = experiment: WST-1 cell viability, U-87 MG glioblastoma cells; assay type: cell-based
# Description: as §1, §2, §3
# HCT-116 cells = experiment: WST-1 cell viability, HCT-116 colorectal cancer cells; assay type: cell-based
# Description: as §1, §2, §3
# MDA-MB-231 cells = experiment: WST-1 cell viability, MDA-MB-231 triple negative breast cancer cells; assay type: cell-based
# Description: as §1, §2, §3
# MIA PaCa-2 cells = experiment: WST-1 cell viability, MIA PaCa-2 pancreatic cancer cells; assay type: cell-based
# Description: as §1, §2, §3
# cancer cell lines = experiment: In vitro potency and selectivity across a variety of cancer indications (WST-1); assay type: cell-based; conditions: 72 hrs
# Description: as §1
# as §2, with “For instance, if 20% of the cells survive incubation in the presence of a compound, then the maximal efficacy of that compound is 100%-20%=80%.” left out
# A2780 cells = experiment: WST-1 cell viability, A2780 ovarian cancer cells; assay type: cell-based
# Description: as §1, §2, §3
# A2058 cells = experiment: WST-1 cell viability, A2058 melanoma cells; assay type: cell-based
# Description: as §1, §2, §3
# [3] = in dogs; cited from earlier work
# [4] = in mice; cited from earlier work
# [5] = cited from earlier work
# [6] = chronic treatment in rats, doses up to 8-fold higher; cited from earlier work
smiles,measurement,setting,value
"COc1cccc2c1C(=O)c1c(O)c3c(c(O)c1C2=O)C[C@@](O)(C(=O)CO)C[C@@H]3O[C@H]1C[C@H](NC(=O)[C@@H]2CCCN2C(=O)CNC(=O)[C@H](CC(C)C)NC(=O)[C@H](C)NC(=O)CP(=O)(O)O)[C@H](O)[C@H](C)O1 [PhAc-ALGP-Dox, reference compound] (HELM PEPTIDE1{[O=C(CP(=O)(O)O)[*:2]].A.L.G.P.[COc1cccc2c1C(=O)c1c(O)c3c(c(O)c1C2=O)C[C@@](O)(C(=O)CO)C[C@@H]3O[C@H]1C[C@H](N[*:1])[C@H](O)[C@H](C)O1]}$$$$V2.0)","cytotoxicity at 72 h, 100 µM",[1],31.2%
same,pIC50,HME-1 cells,< 4.00
same,Tumor growth,[2],significantly reduced tumor growth
COc1cccc2c1C(=O)c1c(O)c3c(c(O)c1C2=O)C[C@@](O)(C(=O)CO)C[C@@H]3O[C@H]1C[C@H](NC(=O)[C@@H]2CCCN2C(=O)[C@H](CCCCN)NC(=O)[C@@H]2CCCN2C(=O)[C@H](C)NC(=O)CP(=O)(O)O)[C@H](O)[C@H](C)O1 [PhAc-APKP-Dox] (HELM PEPTIDE1{[O=C(CP(=O)(O)O)[*:2]].A.P.K.P.[COc1cccc2c1C(=O)c1c(O)c3c(c(O)c1C2=O)C[C@@](O)(C(=O)CO)C[C@@H]3O[C@H]1C[C@H](N[*:1])[C@H](O)[C@H](C)O1]}$$$$V2.0),SI = HME-1 IC50/cancer IC50,NCI-H292 cells; NCI-H292 (NSCLC) vs HME-1 (Table 3),0.70
same,pIC50,"NCI-H292 cells; NCI-H292 (NSCLC), 72 hrs, WST-1 (Table 1), read-out: Absolute IC50",4.59
same,"Maximal efficacy, cytotoxicity (%) at 100 μM","NCI-H292 cells; NCI-H292 (NSCLC), 72 hrs, WST-1 (Table 2)",63.26%
same,SI = HME-1 IC50/cancer IC50,LS 174T cells; LS 174T (CrC) vs HME-1 (Table 3),1.23
same,pIC50,"LS 174T cells; LS 174T (CrC), 72 hrs, WST-1 (Table 1), read-out: Absolute IC50",4.83
same,"Maximal efficacy, cytotoxicity (%) at 100 μM","LS 174T cells; LS 174T (CrC), 72 hrs, WST-1 (Table 2)",53.72%
same,"cytotoxicity at 72 h, 100 µM",[1],81.5%
same,SI = HME-1 IC50/cancer IC50,HME-1 cells; HME-1 normal cells against themselves (Table 3),1.00
same,pIC50,HME-1 cells,4.74
same,SI = HME-1 IC50/cancer IC50,DU145 cells; DU145 (PrC) vs HME-1 (Table 3),2.02
same,pIC50,"DU145 cells; DU145 (PrC), 72 hrs, WST-1 (Table 1), read-out: Absolute IC50",5.05
same,"Maximal efficacy, cytotoxicity (%) at 100 μM","DU145 cells; DU145 (PrC), 72 hrs, WST-1 (Table 2)",91.93%
same,SI = HME-1 IC50/cancer IC50,NCI-1299 cells; NCI-1299 (NSCLC) vs HME-1 (Table 3),1.72
same,pIC50,"NCI-1299 cells; NCI-1299 (NSCLC), 72 hrs, WST-1 (Table 1), read-out: Absolute IC50",4.98
same,"Maximal efficacy, cytotoxicity (%) at 100 μM","NCI-1299 cells; NCI-1299 (NSCLC), 72 hrs, WST-1 (Table 2)",75.52%
same,SI = HME-1 IC50/cancer IC50,A-172 cells; A-172 (GBM) vs HME-1 (Table 3),0.49
same,pIC50,"A-172 cells; A-172 (GBM), 72 hrs, WST-1 (Table 1), read-out: Absolute IC50",4.43
same,"Maximal efficacy, cytotoxicity (%) at 100 μM","A-172 cells; A-172 (GBM), 72 hrs, WST-1 (Table 2)",91.93%
same,SI = HME-1 IC50/cancer IC50,A2780 Cp cells; A2780 Cp (OvC) vs HME-1 (Table 3),1.62
same,"Maximal efficacy, cytotoxicity (%) at 100 μM","A2780 Cp cells; A2780 Cp (OvC), 72 hrs, WST-1 (Table 2)",74.61%
same,pIC50,"A2780 Cp cells; A2780 Cp (OvC, cisplatin resistant), 72 hrs, WST-1 (Table 1), read-out: Absolute IC50",4.95
same,SI = HME-1 IC50/cancer IC50,MDA-MB-468 cells; MDA-MB-468 (TNBC) vs HME-1 (Table 3),4.02
same,pIC50,"MDA-MB-468 cells; MDA-MB-468 (TNBC), 72 hrs, WST-1 (Table 1), read-out: Absolute IC50",5.35
same,"Maximal efficacy, cytotoxicity (%) at 100 μM","MDA-MB-468 cells; MDA-MB-468 (TNBC), 72 hrs, WST-1 (Table 2)",91.83%
same,SI = HME-1 IC50/cancer IC50,U-87 MG cells; U-87 MG (GBM) vs HME-1 (Table 3),1.46
same,pIC50,"U-87 MG cells; U-87 MG (GBM), 72 hrs, WST-1 (Table 1), read-out: Absolute IC50",4.91
same,"Maximal efficacy, cytotoxicity (%) at 100 μM","U-87 MG cells; U-87 MG (GBM), 72 hrs, WST-1 (Table 2)",88.38%
same,SI = HME-1 IC50/cancer IC50,HCT-116 cells; HCT-116 (CrC) vs HME-1 (Table 3),1.47
same,pIC50,"HCT-116 cells; HCT-116 (CrC), 72 hrs, WST-1 (Table 1), read-out: Absolute IC50",4.91
same,"Maximal efficacy, cytotoxicity (%) at 100 μM","HCT-116 cells; HCT-116 (CrC), 72 hrs, WST-1 (Table 2)",81.05%
same,SI = HME-1 IC50/cancer IC50,MDA-MB-231 cells; MDA-MB-231 (TNBC) vs HME-1 (Table 3),8.49
same,pIC50,"MDA-MB-231 cells; MDA-MB-231 (TNBC), 72 hrs, WST-1 (Table 1), read-out: Absolute IC50",5.67
same,"Maximal efficacy, cytotoxicity (%) at 100 μM","MDA-MB-231 cells; MDA-MB-231 (TNBC), 72 hrs, WST-1 (Table 2)",89.12%
same,SI = HME-1 IC50/cancer IC50,MIA PaCa-2 cells; MIA PaCa-2 (PaC) vs HME-1 (Table 3),0.40
same,pIC50,"MIA PaCa-2 cells; MIA PaCa-2 (PaC), 72 hrs, WST-1 (Table 1), read-out: Absolute IC50",4.34
same,"Maximal efficacy, cytotoxicity (%) at 100 μM","MIA PaCa-2 cells; MIA PaCa-2 (PaC), 72 hrs, WST-1 (Table 2)",77.65%
same,Potency range against cancer cells,cancer cell lines,within the micromolar range
same,SI = HME-1 IC50/cancer IC50,A2780 cells; A2780 (OvC) vs HME-1 (Table 3),21.13
same,pIC50,"A2780 cells; A2780 (OvC), 72 hrs, WST-1 (Table 1), read-out: Absolute IC50",6.07
same,"Maximal efficacy, cytotoxicity (%) at 100 μM","A2780 cells; A2780 (OvC), 72 hrs, WST-1 (Table 2)",87.34%
same,SI = HME-1 IC50/cancer IC50,A2058 cells; A2058 (Melanoma) vs HME-1 (Table 3),3.69
same,pIC50,"A2058 cells; A2058 (Melanoma), 72 hrs, WST-1 (Table 1), read-out: Absolute IC50",5.31
same,"Maximal efficacy, cytotoxicity (%) at 100 μM","A2058 cells; A2058 (Melanoma), 72 hrs, WST-1 (Table 2)",96.27%
"COc1cccc2c1C(=O)c1c(O)c3c(c(O)c1C2=O)CC(O)(C(=O)CO)CC3OC1CC(NC(=O)C(CC(C)C)NC(=O)C(C)NC(=O)C(CC(C)C)NC(=O)CCNC(=O)CCC(=O)O)C(O)C(C)O1 [Suc-βALAL-dox, N-succinyl-beta-alanyl-L-leucyl-L-alanyl-L-leucyl-doxorubicin]",Times less toxic compared with unconjugated doxorubicin,[3],3 times
same,Times less toxic compared with unconjugated doxorubicin,[4],about 5 times
same,"Clinical benefit, share of evaluable patients","[5]; phase I clinical study (Delord et al., unpublished)",59%
same,Cardiac adverse events,"[5]; phase I clinical study, even at very high cumulative doses (2750 mg/m^2)","No drug-related, severe cardiac adverse events were reported"
same,Dose at which myelotoxicity occurred compared with free doxorubicin,[5]; phase I clinical study,three times higher doses
same,Cardiotoxicity compared with Dox,[6],significantly less cardiotoxic
